Test results reported in US8293763B2, “8-anilinoimidazopyridines and their use as anti-cancer and/or anti-inflammatory agents” (Genentech, Inc., priority 2007, dated 2012).

Experiments:
phospho-ERK = assay: Phospho-ERK Cell-Based Assay (ELISA), HCT116; details: Homo sapiens, HCT-116; HCT116 cell line, 2 h or 24 h exposure
Experimental: Phospho-ERK Cell-Based Assay
Compounds are tested in a cell-based phospho-ERK ELISA using the following cell lines:
(§1) HCT116 human colorectal carcinoma (ATCC)
(§2) Both cell lines are maintained in DMEM/F12 (1:1) media (Gibco) supplemented with 10% FCS at 37° C. in a 5% CO2 humidified incubator.
Cells are seeded in 96-well plates at 2,000 cells/well and after 24 h they are exposed to different concentrations of compounds in 0.83% DMSO. Cells are grown for a further 2 h or 24 h, fixed with formaldehyde (2% final) and permeabilised with methanol. Following blocking with TBST-3% BSA, fixed cells are incubated with primary antibody (anti-phospho ERK from rabbit) over-night at 4° C. Cells are incubated with Propidium Iodide (DNA fluorescent dye) and detection of cellular p-ERK is performed using an anti-rabbit secondary antibody conjugated to the fluorescent Alexa Fluor 488 dye (Molecular probes). The fluorescence is analysed using the Acumen Explorer (TTP Labtech), a laser-scanning microplate cytometer, and the Alexa Fluor 488 signal is normalised to the PI signal (proportional to cell number).
The EC50 is defined as the concentration at which a given compound achieves a signal half way between the baseline and the maximum response. EC50 values are calculated using the XLfit software package (version 2.0.5).

[1] = system: HCT116 human colorectal carcinoma; assay: Cell Proliferation Assay (CellTiter-Glo), HCT116; format: cell-based; details: HCT-116, HCT116 cell line, 72 h exposure
Experimental: Compounds are tested in a cell proliferation assay using the following cell lines:
as §1, §2
Cells are seeded in 96-well plates at 2,000 cells/well and after 24 hours they are exposed to different concentrations of compounds in 0.83% DMSO. Cells are grown for a further 72 h, and an equal volume of CellTiter-Glo reagent (Promega) is added to each well. This lyses the cells and generates a luminescent signal proportional to the amount of ATP released (and therefore proportional to the number of cells in the well) that can be detected using a multi-well luminometer.
The EC50 is defined as the concentration at which a given compound achieves 50% inhibition of control. IC50 values are calculated using the XLfit software package (version 2.0.5).

EC50 (phospho-ERK): < 200 nM | EC50 [1]: < 100 nM
Compound: C[C@H](O)CONC(=O)c1ccn2cncc2c1Nc1ccc(Br)cc1F [Example 12, 8-(4-Bromo-2-fluoro-phenylamino)-imidazo[1,5-a]pyridine-7-carboxylic acid ((S)-2-hydroxy-propoxy)-amide]
